Experimental data reported in ChEMBL document CHEMBL1145961, “Metabolism-directed optimization of 3-aminopyrazinone acetamide thrombin inhibitors. Development of an orally bioavailable series containing P1 and P3 pyridines” (J Med Chem, 2003).

Experiments:
[1] = Maximum plasma concentration in dog after administration of 1 mg/kg dose of compound; type: ADME, organism-based, Canis lupus familiaris; set-up: dose 1 mg/kg
Serine protease 1 = Serine protease 1 (Homo sapiens, UniProt P07477); assay: Inhibitory constant against human trypsin
Serine protease 1, sequence (P07477 whole entry): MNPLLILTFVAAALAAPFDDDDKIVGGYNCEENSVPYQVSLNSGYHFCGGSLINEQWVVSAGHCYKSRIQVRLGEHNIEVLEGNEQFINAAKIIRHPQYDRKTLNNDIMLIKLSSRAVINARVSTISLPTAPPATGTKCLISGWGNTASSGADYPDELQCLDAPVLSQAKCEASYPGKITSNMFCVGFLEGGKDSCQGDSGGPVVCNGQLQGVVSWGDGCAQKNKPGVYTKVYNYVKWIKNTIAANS

Prothrombin = Prothrombin (Homo sapiens, UniProt P00734); assay: Inhibitory constant against thrombin (IIa)
[2] = Concentration required to double the activated partial thromboplastin time (2x APTT) in human plasma; type: functional
[3] = (§1) Plasma half-life in dog after peroral administration was evaluated; type: ADME, organism-based, Canis lupus familiaris; conditions: plasma, po
[4] = Maximum plasma concentration in dog after administration of 0.5 mg/kg dose of compound; type: ADME, organism-based, Canis lupus familiaris; set-up: dose 0.5 mg/kg
[5] = Maximum plasma concentration in dog after administration of 0.7 mg/kg dose of compound; type: ADME, organism-based, Canis lupus familiaris; set-up: dose 0.7 mg/kg
[6] = Plasma half-life (0.65 mg/kg) dog after intravenous administration; type: ADME, organism-based, Canis lupus familiaris
[7] = Plasma half-life (5 mg/kg) in rhesus monkey after intravenous administration; type: ADME, organism-based, Macaca mulatta
[8] = Maximum plasma concentration in african green monkey after peroral administration of 5 mg/kg dose of compound; type: ADME, organism-based; set-up: dose 5 mg/kg, route oral; conditions: chlorocebus aethiops, po
[9] = Oral bioavailability in Rhesus monkey (dose 5 mg/kg); type: ADME, organism-based, Macaca mulatta; conditions: in vivo
[10] = Maximum plasma concentration in rhesus monkey after peroral administration of 5 mg/kg dose of compound; type: ADME, organism-based, Macaca mulatta; set-up: dose 5 mg/kg, route oral; conditions: po
[11] = Oral bioavailability in african green monkey after administration of 5 mg/kg of compound; type: ADME, organism-based; conditions: chlorocebus aethiops, in vivo
Canis familiaris = assay: as §1; type: ADME, organism-based, Canis lupus familiaris; conditions: in vivo, po
[12] = Plasma half-life (5 mg/kg) in african green monkey after intravenous administration; type: ADME, organism-based; conditions: chlorocebus aethiops
[13] = Maximum plasma concentration in rat after peroral administration of 10 mg/kg dose of compound; type: ADME, organism-based; set-up: dose 10 mg/kg, route oral; conditions: po
[14] = Oral bioavailability in dog after administration of 0.65 mg/kg of compound; type: ADME, organism-based, Canis lupus familiaris; conditions: in vivo
[15] = Maximum plasma concentration in dog after peroral administration of 0.65 mg/kg dose of compound; type: ADME, organism-based, Canis lupus familiaris; set-up: dose 0.65 mg/kg, route oral; conditions: po
[16] = Oral bioavailability in rat (dose 10 mg/kg); type: ADME, organism-based; conditions: in vivo
[17] = Plasma half-life ([…] mg/kg) in rat after intravenous administration; type: ADME, organism-based; conditions: 10 mg/kg
[18] = Maximum plasma concentration in dog after peroral administration of 1 mg/kg dose of compound; type: ADME, organism-based, Canis lupus familiaris; set-up: dose 1 mg/kg, route oral; conditions: po
[19] = Oral bioavailability in dog after administration of 1 mg/kg of compound; type: ADME, organism-based, Canis lupus familiaris; conditions: in vivo
in vivo = conditions: dog, iv, 1 mg/kg

| SMILES | Cmax [1] [nM] | Ki (Serine protease 1) [µM] | Ki (Prothrombin) [µM] | 2x aPTT [2] [µM] | half-life [3] [h] | also measured |
| --- | --- | --- | --- | --- | --- | --- |
| O=C(Cn1c(Cl)cnc(NCC(F)(F)c2ccccn2)c1=O)NCc1ncccc1Cl | 62 | 567 | 0.0079 | 1.41 | 5.7 |  |
| Cc1ccnc(CNC(=O)Cn2c(C)cnc(NCC(F)(F)c3ccccc3)c2=O)c1F | 1830 | 40 | 0.0012 | 0.72 | 0.7 |  |
| Cc1nc(N)ccc1CNC(=O)Cn1c(C)cnc(NCCc2cccnc2)c1=O |  | 3.8 | 0.00054 | 0.28 |  |  |
| COc1ccnc(CNC(=O)Cn2c(Cl)cnc(NCC(F)(F)c3ccccn3)c2=O)c1 |  | 665 | 0.0036 | 0.71 | 2 | Cmax [4]: 530 nM |
| Cc1nc(N)ccc1CNC(=O)Cn1c(C)cnc(NCC(F)(F)c2ccccc2)c1=O |  | 0.855 |  |  |  |  |
| Cc1cnc(NCCc2ccccc2)c(=O)n1CC(=O)NCc1ccncc1 |  | 251 | 17 |  |  |  |
| N#Cc1cnc(NCC(F)(F)c2ccccn2)c(=O)n1CC(=O)NCc1ncccc1F | 1170 | 213 | 0.0023 | 0.41 | 9.7 |  |
| Cc1ccnc(CNC(=O)Cn2c(C)cnc(NCC(F)(F)c3ccccn3)c2=O)c1F |  | 118 |  | 0.48 | 1 | Cmax [5]: 1660 nM |
| Cc1ccnc(CNC(=O)Cn2c(Cl)cnc(NCC(F)(F)c3ccccn3)c2=O)c1 | 2320 | 429 | 0.0053 | 0.91 | 2.1 |  |
| COc1cccnc1CNC(=O)Cn1c(Cl)cnc(NCC(F)(F)c2ccccn2)c1=O | 900 | 706 | 0.015 | 2.19 | 2.3 |  |
| Cc1ccnc(CNC(=O)Cn2c(C#N)cnc(NCC(F)(F)c3ccccn3)c2=O)c1F | 1700 | 61 | 0.0004 | 0.31 | 2.4 |  |
| Cc1nc(N)ccc1CNC(=O)Cn1c(C)cnc(NCCc2ccncc2)c1=O |  | 4.6 | 0.0016 | 0.45 |  |  |
| O=C(Cn1c(Cl)cnc(NCC(F)(F)c2ccccn2)c1=O)NCc1ncccc1F [DPOC-4088] | 1380 | 202 | 0.0052 | 0.78 |  | half-life [6]: 4.48 h; half-life [7]: 0.73 h; Cmax [8]: 1710 nM; bioavailability [9]: 5.2%; Cmax [10]: 310 nM; bioavailability [11]: 66%; T1/2 (Canis familiaris): 6.6 h; half-life [12]: 1.6 h; Cmax [13]: 1060 nM; bioavailability [14]: 66%; Cmax [15]: 1160 nM; bioavailability [16]: 23%; half-life [17]: 0.42 h |
| Cc1nc(N)ccc1CNC(=O)Cn1c(C)cnc(NCC(F)(F)c2ccccn2)c1=O |  | 0.8 |  | 0.2 |  |  |
| Cc1cnc(NCCc2ccccc2)c(=O)n1CC(=O)NCc1ccccn1 |  | > 1000 | 0.39 |  |  |  |
| O=C(Cn1ccnc(NCC(F)(F)c2ccccn2)c1=O)NCc1ncccc1F |  | > 1000 | 0.14 |  |  |  |
| Cc1ccnc(CNC(=O)Cn2c(C)cnc(NCC(F)(F)c3ccccc3)c2=O)c1 |  | 270 | 0.0048 | 1.7 |  |  |
| Cc1nc(N)ccc1CNC(=O)Cn1c(C)cnc(NCCc2ccccn2)c1=O |  | 3.6 | 0.00027 | 0.31 |  |  |
| Cc1nc(N)ccc1CNC(=O)Cn1c(C)cnc(NCCc2ccccc2)c1=O [L-375378] |  |  |  | 0.41 |  |  |
| Cc1cnc(NCC(F)(F)c2ccccc2)c(=O)n1CC(=O)NCc1cc(Cl)ccn1 |  | 47 | 0.0013 | 0.89 |  |  |
| Cc1cnc(NCCc2ccccc2)c(=O)n1CC(=O)NCc1cccnc1 |  | 898 | 1.2 |  |  |  |
| Cc1cnc(NCC(F)(F)c2ccccn2)c(=O)n1CC(=O)NCc1ncccc1F | 5640 | 252 |  | 0.67 | 3.5 | Cmax [18]: 5640 nM; half-life [7]: 0.99 h; bioavailability [9]: 12%; bioavailability [19]: 87%; Cmax [10]: 1100 nM; Cmax [13]: 2160 nM; half-life (in vivo): 3.5 h; bioavailability [16]: 55%; half-life [17]: 0.57 h |
| Cc1nc(N)ccc1CNC(=O)Cn1c(C)cnc(NCC(C)(C)c2ccccc2)c1=O |  | 0.8 | 0.0011 | 0.5 |  |  |
| Cc1cnc(NCC(F)(F)c2ccccc2)c(=O)n1CC(=O)NCc1ncccc1F | 3730 | 501 | 0.0068 | 1.26 | 2 |  |
| Cc1ncccc1CNC(=O)Cn1c(C)cnc(NCCc2ccccc2)c1=O |  | > 100 | 0.28 |  |  |  |
| Cc1cnc(NCC(F)(F)c2ccccn2)c(=O)n1CC(=O)NCc1ccccn1 |  | > 1000 | 0.015 | 2.2 |  |  |
| Cc1ccnc(CNC(=O)Cn2c(Cl)cnc(NCC(F)(F)c3ccccn3)c2=O)c1F | 670 | 80 | 0.0009 | 0.48 | 3.2 |  |
| Cc1nc(N)ccc1CNC(=O)Cn1c(C)cnc(NCC(C)c2ccccc2)c1=O (centres undefined) |  | 1.6 | 0.0011 | 0.61 |  |  |
| Cc1ccnc(CNC(=O)Cn2c(C)cnc(NCC(F)(F)c3ccccn3)c2=O)c1 | 4120 | 431 | 0.0028 | 0.59 | 2.4 |  |
| O=C(Cn1c(C(F)(F)F)cnc(NCC(F)(F)c2ccccn2)c1=O)NCc1ncccc1F |  | 136 | 0.044 |  |  |  |
